Measurements: patent US6914045B2, “Glycopeptide antibiotics” (Wyeth Holdings Corporation, priority 2001, dated 2005)
≈ marks a conversion by molar mass, not a printed value. Numbered stars: 1 amine (or outer) side, 2 acyl side, 3 side chain; on linkers, the order of the positions; unused ones are H or OH. Square brackets hold non-standard residues; d marks the D form. Peptide text beside a SMILES is read from it. * marks the point of attachment. ξ: configuration not given here. X1 = N=C1NCC(C(O)C(N[*:1])C(=O)[*:2])N1C1OC(CO)C(O)C(O)C1O; ξEnduracididine(βξ-OH,4'ξ) = N=C1NCC(C(O)C(N)C(=O)O)N1; ξPhe(4-Cl,βξ-Me) = CC(c1ccc(Cl)cc1)C(N)C(=O)O; X2 = OCC1OC(OC2C(CO)OC(*)C(O)C2O)C(O)C(O)C1O

Legend:
Assay in all cases: in vitro antibacterial evaluation, MIC by broth dilution
Assay type in all cases: cell-based
Enterococcus sp. = details: broth dilution, 18 hours at 35° C.
How it was run: (§1)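 Step 1: dilute antibiotic across 64-0.06 μg/mL in Muller-Hinton II […]. Step 2: inoculate at 5×10^5 CFU/mL.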

Escherichia coli = details: 18 hours at 35° C.
How it was run: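 Inoculum 5×10^5 CFU/mL; concentrations 64 to 0.06 μg/mL; MIC defined as lowest inhibitory level. Conducted by broth dilution under NCCLS guidelines.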

Staphylococcus sp. = details: broth dilution, 18 hours at 35° C.
How it was run: as §1

Streptococcus sp. = details: broth dilution, 18 hours at 35° C.
How it was run: as §1

- MIC Enterococcus avium (GC 4558) (Enterococcus sp.; Enterococcus avium (GC 4558)): >128 µg/mL
- MIC Enterococcus faecalis (ATCC 29212) (Enterococcus sp.; Enterococcus faecalis (ATCC 29212)): >128 µg/mL
- MIC Enterococcus faecalis (GC 4553) (Enterococcus sp.; Enterococcus faecalis (GC 4553)): >128 µg/mL
- MIC Enterococcus faecalis (GC 4554) (Enterococcus sp.; Enterococcus faecalis (GC 4554)): >128 µg/mL
- MIC Enterococcus faecium (GC 2243) (Enterococcus sp.; Enterococcus faecium (GC 2243)): >128 µg/mL
- MIC Enterococcus faecium (GC 4556) (Enterococcus sp.; Enterococcus faecium (GC 4556)): >128 µg/mL
- MIC Enterococcus faecium (GC 4557) (Enterococcus sp.; Enterococcus faecium (GC 4557)): >128 µg/mL
- MIC Enterococcus faecalis (ATCC 29212) (Enterococcus sp.; strain ATCC 29212): >128 µg/mL
- MIC Enterococcus faecalis (GC 2242) (Enterococcus sp.; strain GC 2242): >128 µg/mL
- MIC Enterococcus faecium (GC 2243) (Enterococcus sp.; strain GC 2243): >128 µg/mL
- MIC Enterococcus faecalis (GC 4552) (Enterococcus sp.; strain GC 4552): >128 µg/mL
- MIC Enterococcus faecalis (GC 4553) (Enterococcus sp.; strain GC 4553): >128 µg/mL
- MIC Enterococcus faecalis (GC 4554) (Enterococcus sp.; strain GC 4554): >128 µg/mL
- MIC Enterococcus faecium (GC 4556) (Enterococcus sp.; strain GC 4556): >128 µg/mL
- MIC Enterococcus faecium (GC 4557) (Enterococcus sp.; strain GC 4557): >128 µg/mL
- MIC Enterococcus avium (GC 4558) (Enterococcus sp.; strain GC 4558): >128 µg/mL
- MIC Escherichia coli (ATCC 25922) (Escherichia coli; Escherichia coli (ATCC 25922)): >128 µg/mL
- MIC Escherichia coli (GC 4559) (Escherichia coli; Escherichia coli (GC 4559)): >128 µg/mL
- MIC Escherichia coli (GC 4560) (Escherichia coli; Escherichia coli (GC 4560)): 16 µg/mL (≈ 12 µM)
- MIC Coagulase Negative Staphylococcus (GC 4547) (Staphylococcus sp.): 64 µg/mL (≈ 48.1 µM)
- MIC Coagulase Negative Staphylococcus (GC 4548) (Staphylococcus sp.): 64 µg/mL (≈ 48.1 µM)
- MIC Coagulase Negative Staphylococcus (GC 4549) (Staphylococcus sp.): 16 µg/mL (≈ 12 µM)
- MIC Coagulase Negative Staphylococcus (GC 4551) (Staphylococcus sp.): 128 µg/mL (≈ 96.3 µM)
- MIC Staphylococcus aureus (ATCC 29213) (Staphylococcus sp.): 64 µg/mL (≈ 48.1 µM)
- MIC Staphylococcus aureus (GC 1131) (Staphylococcus sp.): 128 µg/mL (≈ 96.3 µM)
- MIC Staphylococcus aureus (GC 4541) (Staphylococcus sp.): 64 µg/mL (≈ 48.1 µM)
- MIC Staphylococcus aureus (GC 4542) (Staphylococcus sp.): >128 µg/mL
- MIC Staphylococcus aureus (GC 4544) (Staphylococcus sp.): 64 µg/mL (≈ 48.1 µM)
- MIC Staphylococcus aureus (GC 4545) (Staphylococcus sp.): 64 µg/mL (≈ 48.1 µM)
- MIC Staphylococcus aureus-SMITH (GC 4543) (Staphylococcus sp.): 64 µg/mL (≈ 48.1 µM)
- MIC Staphylococcus aureus (ATCC 29213) (Staphylococcus sp.; strain ATCC 29213): 64 µg/mL (≈ 48.1 µM)
- MIC Staphylococcus aureus (GC 1131) (Staphylococcus sp.; strain GC 1131): 128 µg/mL (≈ 96.3 µM)
- MIC Staphylococcus aureus (GC 4541) (Staphylococcus sp.; strain GC 4541): 64 µg/mL (≈ 48.1 µM)
- MIC Staphylococcus aureus (GC 4542) (Staphylococcus sp.; strain GC 4542): >128 µg/mL
- MIC Staphylococcus aureus (GC 4544) (Staphylococcus sp.; strain GC 4544): 64 µg/mL (≈ 48.1 µM)
- MIC Staphylococcus aureus (GC 4545) (Staphylococcus sp.; strain GC 4545): 64 µg/mL (≈ 48.1 µM)
- MIC Coagulase Negative Staphylococcus (GC 4547) (Staphylococcus sp.; strain GC 4547): 64 µg/mL (≈ 48.1 µM)
- MIC Coagulase Negative Staphylococcus (GC 4548) (Staphylococcus sp.; strain GC 4548): 64 µg/mL (≈ 48.1 µM)
- MIC Coagulase Negative Staphylococcus (GC 4549) (Staphylococcus sp.; strain GC 4549): 16 µg/mL (≈ 12 µM)
- MIC Coagulase Negative Staphylococcus (GC 4551) (Staphylococcus sp.; strain GC 4551): 128 µg/mL (≈ 96.3 µM)
- MIC Staphylococcus aureus-SMITH (GC 4543) (Staphylococcus sp.; strain SMITH GC 4543): 64 µg/mL (≈ 48.1 µM)
- MIC Streptococcus agalactiae (GC 4564) (Streptococcus sp.; strain GC 4564): 32 µg/mL (≈ 24.1 µM)
- MIC Streptococcus pyogenes (ID-3187) (Streptococcus sp.; strain ID-3187): 32 µg/mL (≈ 24.1 µM)
Compound: CC(c1ccc(Cl)cc1)C1NC(=O)CNC(=O)C(CO)NC(=O)C(C(O)C2CNC(=N)N2C2OC(CO)C(O)C(O)C2O)NC(=O)C(C(O)C2CNC(=N)N2)NC(=O)C(Cc2ccc(OC3OC(CO)C(OC4OC(CO)C(O)C(O)C4O)C(O)C3O)cc2)NC1=O (stereo not drawn) [Example 262a, Cyclo[glycyl-4-chloro-β-methylphenylalanyl-O-(4-O-hexopyranosylhexopyranosyl)tyrosyl-3-(2-iminoimidazolidin-4-yl)seryl-3-(3-hexoopyranosyl-2-iminoimidazolidin-4-yl)serylseryl]] (cyclo(G[ξPhe(4-Cl,βξ-Me)]Y(X2)[ξEnduracididine(βξ-OH,4'ξ)][X1]S); configuration not given here)
- MIC Staphylococcus haemolyticus (GC 4546) (Staphylococcus sp.): 64 µg/mL (≈ 48.1 µM)
- MIC Staphylococcus haemolyticus (GC 4546) (Staphylococcus sp.; strain GC 4546): 64 µg/mL (≈ 48.1 µM)
